We go through 7 molecules from patent US20150141336A1, “Pancreatic Peptide Compounds and Use” (Novo Nordisk A/S, priority 2012, published 2015).

Numbered stars: 1 amine (or outer) side, 2 acyl side, 3 side chain; on linkers, the order of the positions; unused ones are H or OH. Side chains are listed from the residue outwards. Peptide text beside a SMILES is read from it. * marks the point of attachment. C18 diacid = O=C(O)CCCCCCCCCCCCCCCCC(=O)*; γGlu = O=C(O)[C@H](CCC(=O)[*:2])N[*:1]; AEEA = NCCOCCOCC(=O)O

The nature of this data set: Assay (II) PK i.v. minipig, in vivo half-life. Also noted: species or system Göttingen mini-pigs. The settings on record: male, Göttingen, minipig, iv, Half-life minipig, Assay (II). The method, boiled down: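 Male Göttingen mini-pigs (18–22 kg, n=5) received 6 nmol/kg i.v. via central catheter, formulated in 50 mM K2HPO4, 0.05% tween 80, pH 8.0. EDTA plasma sampled pre-dose to 240 h, quantified by TFC/LC/MS/MS (MRM, range 1-2000 nmol/l); half-life from non-compartmental analysis per animal.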
With `CSCC[C@H](NC(=O)[C@H](CCC(N)=O)NC(=O)[C@H](CCC(=O)O)NC(=O)[C@@H]1CCCN1C(=O)[C@@H](NC(=O)[C@H](C)NC(=O)[C@H](CC(N)=O)NC(=O)[C@H](CC(=O)O)NC(=O)CNC(=O)[C@@H]1CCCN1C(=O)[C@H](Cc1ccc(O)cc1)NC(=O)[C@@H](NC(=O)[C@@H]1CCCN1C(=O)[C@H](CCC(=O)O)NC(=O)[C@@H](N)CC(C)C)C(C)C)[C@@H](C)O)C(=O)N[C@@H](C)C(=O)N[C@@H](CCC(N)=O)C(=O)N[C@@H](Cc1ccc(O)cc1)C(=O)N[C@@H](C)C(=O)N[C@@H](C)C(=O)N[C@@H](CC(=O)O)C(=O)N[C@@H](CC(C)C)C(=O)N[C@@H](CCCNC(=N)N)C(=O)N[C@@H](CCCNC(=N)N)C(=O)N[C@@H](Cc1ccc(O)cc1)C(=O)N[C@@H](CCCCNC(=O)COCCOCCNC(=O)COCCOCCNC(=O)CC[C@H](NC(=O)CCCCCCCCCCCCCCCCC(=O)O)C(=O)O)C(=O)N[C@@H](CC(N)=O)C(=O)N[C@@H](CCSC)C(=O)N[C@@H](CC(C)C)C(=O)N[C@H](C(=O)N[C@@H](CCCNC(=N)N)C(=O)N1CCC[C@H]1C(=O)N[C@@H](CCCNC(=N)N)C(=O)N[C@@H](Cc1ccc(O)cc1)C(N)=O)[C@@H](C)O` [Compound AN] (H-LEPVYPGDNATPEQMAQYAADLRRYK([AEEA-AEEA-γGlu-C18 diacid])NMLTRPRY-NH2; N-terminus and C-terminus assumed), the half-life was 69 h.
For the molecule `CC[C@H](C)[C@H](NC(=O)[C@H](Cc1ccc(O)cc1)NC(=O)[C@H](CCCNC(=N)N)NC(=O)[C@H](CCCNC(=N)N)NC(=O)[C@H](CC(C)C)NC(=O)[C@H](CC(=O)O)NC(=O)[C@H](CCCCNC(=O)COCCOCCNC(=O)COCCOCCNC(=O)CC[C@H](NC(=O)CCCCCCCCCCCCCCCCC(=O)O)C(=O)O)NC(=O)[C@H](C)NC(=O)[C@H](Cc1ccc(O)cc1)NC(=O)[C@H](CCC(N)=O)NC(=O)[C@H](C)NC(=O)[C@H](CCSC)NC(=O)[C@H](CCC(N)=O)NC(=O)[C@H](CCC(=O)O)NC(=O)[C@@H]1CCCN1C(=O)[C@@H](NC(=O)[C@H](C)NC(=O)[C@H](CC(N)=O)NC(=O)[C@H](CC(=O)O)NC(=O)CNC(=O)[C@@H]1CCCN1C(=O)[C@H](Cc1ccc(O)cc1)NC(=O)[C@@H](NC(=O)[C@@H]1CCCN1C(=O)[C@H](CCC(=O)O)NC(=O)[C@H](CC(C)C)NC(=O)[C@@H]1CCCN1)C(C)C)[C@@H](C)O)C(=O)N[C@@H](CC(N)=O)C(=O)N[C@@H](CCSC)C(=O)N[C@@H](CC(C)C)C(=O)N[C@H](C(=O)N[C@@H](CCCNC(=N)N)C(=O)N1CCC[C@H]1C(=O)N[C@@H](CCCNC(=N)N)C(=O)N[C@@H](Cc1ccc(O)cc1)C(N)=O)[C@@H](C)O` [Compound L] (H-PLEPVYPGDNATPEQMAQYAK([AEEA-AEEA-γGlu-C18 diacid])DLRRYINMLTRPRY-NH2; N-terminus and C-terminus assumed), the half-life is 83 h.
The result for `CC[C@H](C)[C@H](NC(=O)[C@H](Cc1ccc(O)cc1)NC(=O)[C@H](CCCNC(=N)N)NC(=O)[C@H](CCCNC(=N)N)NC(=O)[C@H](CC(C)C)NC(=O)[C@H](CC(=O)O)NC(=O)[C@H](C)NC(=O)[C@H](C)NC(=O)[C@H](Cc1ccc(O)cc1)NC(=O)[C@H](CCC(N)=O)NC(=O)[C@H](C)NC(=O)[C@H](CCSC)NC(=O)[C@H](CCC(N)=O)NC(=O)[C@H](CCC(=O)O)NC(=O)[C@@H]1CCCN1C(=O)[C@H](CCCCNC(=O)COCCOCCNC(=O)COCCOCCNC(=O)CC[C@H](NC(=O)CCCCCCCCCCCCCCCCC(=O)O)C(=O)O)NC(=O)[C@H](C)NC(=O)[C@H](CC(N)=O)NC(=O)[C@H](CC(=O)O)NC(=O)CNC(=O)[C@@H]1CCCN1C(=O)[C@H](Cc1ccc(O)cc1)NC(=O)[C@@H](NC(=O)[C@@H]1CCCN1C(=O)[C@H](CCC(=O)O)NC(=O)[C@@H](N)CC(C)C)C(C)C)C(=O)N[C@@H](CC(N)=O)C(=O)N[C@@H](CCSC)C(=O)N[C@@H](CC(C)C)C(=O)N[C@H](C(=O)N[C@@H](CCCNC(=N)N)C(=O)N1CCC[C@H]1C(=O)N[C@@H](CCCNC(=N)N)C(=O)N[C@@H](Cc1ccc(O)cc1)C(N)=O)[C@@H](C)O` [Compound BC] (H-LEPVYPGDNAK([AEEA-AEEA-γGlu-C18 diacid])PEQMAQYAADLRRYINMLTRPRY-NH2; N-terminus and C-terminus assumed) reads 16 h; that for `CC[C@H](C)[C@H](NC(=O)[C@H](Cc1ccc(O)cc1)NC(=O)[C@H](CCCNC(=N)N)NC(=O)[C@H](CCCNC(=N)N)NC(=O)[C@H](CC(C)C)NC(=O)[C@H](CC(=O)O)NC(=O)[C@H](C)NC(=O)[C@H](C)NC(=O)[C@H](Cc1ccc(O)cc1)NC(=O)[C@H](CCC(N)=O)NC(=O)[C@H](C)NC(=O)[C@H](CCSC)NC(=O)[C@H](CCC(N)=O)NC(=O)[C@H](CCC(=O)O)NC(=O)[C@@H]1CCCN1C(=O)[C@@H](NC(=O)[C@H](C)NC(=O)[C@H](CC(N)=O)NC(=O)[C@H](CC(=O)O)NC(=O)CNC(=O)[C@@H]1CCCN1C(=O)[C@H](Cc1ccc(O)cc1)NC(=O)[C@@H](NC(=O)[C@@H]1CCCN1C(=O)[C@H](CCC(=O)O)NC(=O)[C@H](CC(C)C)NC(=O)[C@@H]1CCCN1)C(C)C)[C@@H](C)O)C(=O)N[C@@H](CC(N)=O)C(=O)N[C@@H](CCSC)C(=O)N[C@@H](CCCCNC(=O)COCCOCCNC(=O)COCCOCCNC(=O)CC[C@H](NC(=O)CCCCCCCCCCCCCCCCC(=O)O)C(=O)O)C(=O)N[C@H](C(=O)N[C@@H](CCCNC(=N)N)C(=O)N1CCC[C@H]1C(=O)N[C@@H](CCCNC(=N)N)C(=O)N[C@@H](Cc1ccc(O)cc1)C(N)=O)[C@@H](C)O` [Compound C] (H-PLEPVYPGDNATPEQMAQYAADLRRYINMK([AEEA-AEEA-γGlu-C18 diacid])TRPRY-NH2; N-terminus and C-terminus assumed), 94 h.
Regarding `CC[C@H](C)[C@H](NC(=O)[C@H](Cc1ccc(O)cc1)NC(=O)[C@H](CCCNC(=N)N)NC(=O)[C@H](CCCNC(=N)N)NC(=O)[C@H](CC(C)C)NC(=O)[C@H](CC(=O)O)NC(=O)[C@H](C)NC(=O)[C@H](C)NC(=O)[C@H](Cc1ccc(O)cc1)NC(=O)[C@H](CCC(N)=O)NC(=O)[C@H](C)NC(=O)[C@H](CCCCNC(=O)COCCOCCNC(=O)COCCOCCNC(=O)CC[C@H](NC(=O)CCCCCCCCCCCCCCCCC(=O)O)C(=O)O)NC(=O)[C@H](CCC(N)=O)NC(=O)[C@H](CCC(=O)O)NC(=O)[C@@H]1CCCN1C(=O)[C@@H](NC(=O)[C@H](C)NC(=O)[C@H](CC(N)=O)NC(=O)[C@H](CC(=O)O)NC(=O)CNC(=O)[C@@H]1CCCN1C(=O)[C@H](Cc1ccc(O)cc1)NC(=O)[C@@H](NC(=O)[C@@H]1CCCN1C(=O)[C@H](CCC(=O)O)NC(=O)[C@H](CC(C)C)NC(=O)[C@@H]1CCCN1)C(C)C)[C@@H](C)O)C(=O)N[C@@H](CC(N)=O)C(=O)N[C@@H](CCSC)C(=O)N[C@@H](CC(C)C)C(=O)N[C@H](C(=O)N[C@@H](CCCNC(=N)N)C(=O)N1CCC[C@H]1C(=O)N[C@@H](CCCNC(=N)N)C(=O)N[C@@H](Cc1ccc(O)cc1)C(N)=O)[C@@H](C)O` [Compound Q] (H-PLEPVYPGDNATPEQK([AEEA-AEEA-γGlu-C18 diacid])AQYAADLRRYINMLTRPRY-NH2; N-terminus and C-terminus assumed), the half-life was 56 h.
Take `CC[C@H](C)[C@H](NC(=O)[C@H](Cc1ccc(O)cc1)NC(=O)[C@H](CCCNC(=N)N)NC(=O)[C@H](CCCNC(=N)N)NC(=O)[C@H](CCCCNC(=O)COCCOCCNC(=O)COCCOCCNC(=O)CC[C@H](NC(=O)CCCCCCCCCCCCCCCCC(=O)O)C(=O)O)NC(=O)[C@H](CC(=O)O)NC(=O)[C@H](C)NC(=O)[C@H](C)NC(=O)[C@H](Cc1ccc(O)cc1)NC(=O)[C@H](CCC(N)=O)NC(=O)[C@H](C)NC(=O)[C@H](CCSC)NC(=O)[C@H](CCC(N)=O)NC(=O)[C@H](CCC(=O)O)NC(=O)[C@@H]1CCCN1C(=O)[C@@H](NC(=O)[C@H](C)NC(=O)[C@H](CC(N)=O)NC(=O)[C@H](CC(=O)O)NC(=O)CNC(=O)[C@@H]1CCCN1C(=O)[C@H](Cc1ccc(O)cc1)NC(=O)[C@@H](NC(=O)[C@@H]1CCCN1C(=O)[C@H](CCC(=O)O)NC(=O)[C@H](CC(C)C)NC(=O)[C@@H]1CCCN1)C(C)C)[C@@H](C)O)C(=O)N[C@@H](CC(N)=O)C(=O)N[C@@H](CCSC)C(=O)N[C@@H](CC(C)C)C(=O)N[C@H](C(=O)N[C@@H](CCCNC(=N)N)C(=O)N1CCC[C@H]1C(=O)N[C@@H](CCCNC(=N)N)C(=O)N[C@@H](Cc1ccc(O)cc1)C(N)=O)[C@@H](C)O` [Compound J] (H-PLEPVYPGDNATPEQMAQYAADK([AEEA-AEEA-γGlu-C18 diacid])RRYINMLTRPRY-NH2; N-terminus and C-terminus assumed): the half-life was 44 h.
Consider `CC[C@H](C)[C@H](NC(=O)[C@H](Cc1ccc(O)cc1)NC(=O)[C@H](CCCNC(=N)N)NC(=O)[C@H](CCCNC(=N)N)NC(=O)[C@H](CC(C)C)NC(=O)[C@H](CC(=O)O)NC(=O)[C@H](C)NC(=O)[C@H](C)NC(=O)[C@H](Cc1ccc(O)cc1)NC(=O)[C@H](CCC(N)=O)NC(=O)[C@H](C)NC(=O)[C@H](CCSC)NC(=O)[C@H](CCC(N)=O)NC(=O)[C@H](CCC(=O)O)NC(=O)[C@@H]1CCCN1C(=O)[C@@H](NC(=O)[C@H](C)NC(=O)[C@H](CC(N)=O)NC(=O)[C@H](CC(=O)O)NC(=O)CNC(=O)[C@@H]1CCCN1C(=O)[C@H](CCCCNC(=O)COCCOCCNC(=O)COCCOCCNC(=O)CC[C@H](NC(=O)CCCCCCCCCCCCCCCCC(=O)O)C(=O)O)NC(=O)[C@@H](NC(=O)[C@@H]1CCCN1C(=O)[C@H](CCC(=O)O)NC(=O)[C@@H](N)CC(C)C)C(C)C)[C@@H](C)O)C(=O)N[C@@H](CC(N)=O)C(=O)N[C@@H](CCSC)C(=O)N[C@@H](CC(C)C)C(=O)N[C@H](C(=O)N[C@@H](CCCNC(=N)N)C(=O)N1CCC[C@H]1C(=O)N[C@@H](CCCNC(=N)N)C(=O)N[C@@H](Cc1ccc(O)cc1)C(N)=O)[C@@H](C)O` [Compound BI], for which the half-life is 9 h.
